Values of other authors, collected in patent US9492446B2, “Manufacturing method of solid dispersion containing itraconazole” (CTC BIO, Inc., priority 2004, dated 2016).

How the values were obtained:
[1] = AIDS patients, higher pH in stomach; oral

- absorption of itraconazole relative to that of normal people [1]: no more than 50%
- water-solubility: less than 1 ug/ml
Compound: CCC(C)n1ncn(-c2ccc(N3CCN(c4ccc(OCC5COC(Cn6cncn6)(c6ccc(Cl)cc6Cl)O5)cc4)CC3)cc2)c1=O (centres unmarked) [Itraconazole]
